Laboratory results as given in article PMC2215435 (The Journal of General Physiology, 1981).
Like-named read-outs stand apart in the source and are kept apart here.

Tested on: potassium channel
Type: cell-based, squid Loligo pealei
Conditions: for rate constant of block b: calculated from Kd = l/b and tau decay (Table IV); for tau decay / blocking rate constant K (fit of current with Eq. 2) / unblocking rate constant L (fit of current with Eq. 2): 30 μM; for blocking rate constant K (fit of current with Eq. 2) / unblocking rate constant L (fit of current with Eq. 2): Fig. 1B
[1] = +100 mV, several experiments, Fig. 3B, r = 0.98

Structure (SMILES)	rate constant of unblock l (+60 mV (Table IV)) [ms-1]	rate constant of block b (+60 mV)	rate constant of unblock l (+80 mV (Table IV)) [ms-1]	rate constant of block b (+80 mV)	rate constant of unblock l (+100 mV (Table IV)) [ms-1]	rate constant of block b (+100 mV)	tau decay (+100 mV, 6 °C) [ms]	tau decay (+100 mV, 8 °C) [ms]	tau decay (+100 mV, 16 °C) [ms]	time constant of decay of potassium current (tau decay) (10 μM, +100 mV) [ms]	time constant of decay of potassium current (tau decay) (33 μM, +100 mV) [ms]	time constant of decay of potassium current (tau decay) (100 μM, +100 mV) [ms]	b from straight line 1/tau decay = b[QA] + l [1]	l from straight line 1/tau decay = b[QA] + l [1] [ms-1]	blocking rate constant K (fit of current with Eq. 2) (+60 mV) [ms-1]	unblocking rate constant L (fit of current with Eq. 2) (+60 mV) [ms-1]	blocking rate constant K (fit of current with Eq. 2) (+100 mV) [ms-1]	unblocking rate constant L (fit of current with Eq. 2) (+100 mV) [ms-1]
CC[N+](CC)(CC)CCCc1ccccc1 [~PTE, phenylpropyltriethylammonium]	0.015	2.5 ms-1 mM-1	0.013	2.7 ms-1 mM-1	0.025	3.5 ms-1 mM-1												
CCCCCCCCCC[N+](CC)(CC)CC [C10TE, decyltriethylammonium]	0.019	5.2 ms-1 mM-1	0.019	6.0 ms-1 mM-1	0.023	6.7 ms-1 mM-1	5.78	3.83	2.06									
CCCCCCCC[N+](CC)(CC)CCCO [CsDEProh, octyldiethylpropanolammonium]	0.0236	2.56 ms-1 mM-1	0.0308	3.55 ms-1 mM-1	0.0262	4.10 ms-1 mM-1				11.42	6.88	2.21	4.0 ms-1 mM-1	0.032				
CCCCCCCCCC[N+](CCO)(CCO)CCO [C10TEtoh, decyltriethanolammonium]	0.084	0.43 ms-1 mM-1	0.097	0.55 ms-1 mM-1	0.110	0.65 ms-1 mM-1												
CCCCCCCCC[N+](CC)(CC)CC [C9TE, nonyltriethylammonium]	0.030	5.5 ms-1 mM-1	0.028	6.1 ms-1 mM-1	0.033	7.3 ms-1 mM-1												
CCCCCCC[N+](CC)(CC)CC [C7TE, heptyltriethylammonium]	0.071	2.8 ms-1 mM-1	0.072	3.4 ms-1 mM-1	0.063	3.6 ms-1 mM-1												
CC[N+](CC)(CCO)CCCc1ccccc1 [~PDEEtoh, phenylpropyldiethylethanolammonium]	0.024	3.4 ms-1 mM-1	0.037	3.9 ms-1 mM-1	0.033	4.3 ms-1 mM-1												
CCCCCCCC[N+](CC)(CC)CCO [CsDEEtoh, octyldiethylethanolammonium]		6.2 ms-1 mM-1		8.0 ms-1 mM-1		9.4 ms-1 mM-1									0.162	0.118	0.234	0.112
CCCCCCCCCC[N+](CCC)(CCC)CCC [C10TP, decyltripropylammonium]	0.015	0.13 ms-1 mM-1	0.016	0.15 ms-1 mM-1	0.015	0.17 ms-1 mM-1												
CCCCCCCC[N+](CC)(CC)CC [CsTE, octyltriethylammonium]	0.038	5.1 ms-1 mM-1	0.038	5.5 ms-1 mM-1	0.043	5.9 ms-1 mM-1												
CCCCCCCC[N+](CCC)(CCC)CCC [CsTP, octyltripropylammonium]	0.021	0.95 ms-1 mM-1	0.031	1.22 ms-1 mM-1	0.039	1.40 ms-1 mM-1												
